Test results: the supplement of paper PMC11451515

System: SEM cells
Experiment: cell viability relative to DMSO control; higher = less cytotoxic
Settings: 48 h
How it was run: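 Viability, reported as a per-plate percentage of DMSO wells with cell-free wells as background, came from CellTiter-Glo One luminescence. Reading took place after 48 h at 37°C. Before that, NOMO1 or SEM (500 cells/well) or P12-Ichikawa (1000 cells/well) leukemia cells, adapted for at least four passages in each medium, were seeded in 1536-well plates (5 μl) and pin-dosed with library compounds in DMSO, 47 μM to 0.79 nM over 11 threefold points.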

[1] = HPLM + 10% dialyzed FBS, 0.000781 µM
[2] = HPLM + 10% dialyzed FBS, 0.00234 µM
[3] = HPLM + 10% dialyzed FBS, 0.00702 µM
[4] = HPLM + 10% dialyzed FBS, 0.0211 µM
[5] = HPLM + 10% dialyzed FBS, 0.0632 µM
[6] = HPLM + 10% dialyzed FBS, 0.19 µM
[7] = HPLM + 10% dialyzed FBS, 0.569 µM
[8] = HPLM + 10% dialyzed FBS, 1.71 µM
[9] = HPLM + 10% dialyzed FBS, 5.12 µM
[10] = HPLM + 10% dialyzed FBS, 15.4 µM
[11] = HPLM + 10% dialyzed FBS, 46.1 µM
[12] = RPMI 5 mM glucose + 10% FBS, 0.000781 µM
[13] = RPMI 5 mM glucose + 10% FBS, 0.00234 µM
[14] = RPMI 5 mM glucose + 10% FBS, 0.00702 µM
[15] = RPMI 5 mM glucose + 10% FBS, 0.0211 µM
[16] = RPMI 5 mM glucose + 10% FBS, 0.0632 µM
[17] = RPMI 5 mM glucose + 10% FBS, 0.19 µM
[18] = RPMI 5 mM glucose + 10% FBS, 0.569 µM
[19] = RPMI 5 mM glucose + 10% FBS, 1.71 µM
[20] = RPMI 5 mM glucose + 10% FBS, 5.12 µM
[21] = RPMI 5 mM glucose + 10% FBS, 15.4 µM
[22] = RPMI 5 mM glucose + 10% FBS, 46.1 µM
[23] = RPMI 5 mM glucose + 10% dialyzed FBS, 0.000781 µM
[24] = RPMI 5 mM glucose + 10% dialyzed FBS, 0.00234 µM
[25] = RPMI 5 mM glucose + 10% dialyzed FBS, 0.00702 µM
[26] = RPMI 5 mM glucose + 10% dialyzed FBS, 0.0211 µM
[27] = RPMI 5 mM glucose + 10% dialyzed FBS, 0.0632 µM
[28] = RPMI 5 mM glucose + 10% dialyzed FBS, 0.19 µM
[29] = RPMI 5 mM glucose + 10% dialyzed FBS, 0.569 µM
[30] = RPMI 5 mM glucose + 10% dialyzed FBS, 1.71 µM
[31] = RPMI 5 mM glucose + 10% dialyzed FBS, 5.12 µM
[32] = RPMI 5 mM glucose + 10% dialyzed FBS, 15.4 µM
[33] = RPMI 5 mM glucose + 10% dialyzed FBS, 46.1 µM

SMILES | cell viability [1] | cell viability [2] | cell viability [3] | cell viability [4] | cell viability [5] | cell viability [6] | cell viability [7] | cell viability [8] | cell viability [9] | cell viability [10] | cell viability [11] | cell viability [12] | cell viability [13] | cell viability [14] | cell viability [15] | cell viability [16] | cell viability [17] | cell viability [18] | cell viability [19] | cell viability [20] | cell viability [21] | cell viability [22] | cell viability [23] | cell viability [24] | cell viability [25] | cell viability [26] | cell viability [27] | cell viability [28] | cell viability [29] | cell viability [30] | cell viability [31] | cell viability [32] | cell viability [33]
CCC1=C(C)CN(C(=O)NCCc2ccc(S(=O)(=O)NC(=O)N[C@H]3CC[C@H](C)CC3)cc2)C1=O | 78.7% | 91.5% | 93.2% | 93.3% | 86.4% | 104% | 103% | 109% | 114% | 104% | 116% | 81.1% | 92.2% | 95% | 85.5% | 93% | 92.6% | 94.8% | 100% | 94.7% | 92.6% | 94.7% | 94.9% | 87.6% | 101% | 86.2% | 93.7% | 94.8% | 96.1% | 87.7% | 94.3% | 96% | 94.1%
CCCCOc1ccc(C(=O)Nc2ccc(F)cc2F)cc1 | 68.1% | 88.6% | 67.1% | 95.1% | 86.9% | 88.3% | 84.6% | 30.1% | 88.1% | 92.5% | 83.4% | 68.6% | 88.8% | 65.9% | 86.5% | 83.4% | 92.7% | 81.5% | 48.3% | 88.4% | 101% | 73.5% | 78% | 89.7% | 70.6% | 90.1% | 84.7% | 85.6% | 86.2% | 48.1% | 88% | 90.2% | 76.7%
COC1=CC=C(C=C1)C/2=C/OC3=CC(=CC=C3C2=O)O | 116% | 113% | 113% | 114% | 123% | 109% | 114% | 122% | 130% | 115% | 136% | 117% | 124% | 136% | 109% | 133% | 117% | 98.9% | 106% | 143% | 122% | 145% | 124% | 139% | 112% | 110% | 115% | 120% | 122% | 121% | 133% | 131% | 142%
N#Cc1c(C2CCNCC2)cc(-c2c(O)cccc2OCC2CC2)nc1N | 108% | 106% | 107% | 109% | 114% | 115% | 108% | 108% | 100% | 77.4% | 34.2% | 103% | 107% | 106% | 115% | 121% | 110% | 97.3% | 118% | 102% | 82.8% | 29% | 98.7% | 108% | 104% | 104% | 106% | 108% | 101% | 98.1% | 85.3% | 72.6% | 43.7%
Cc1c(OCC(F)(F)F)ccnc1C[S+]([O-])c1nc2ccccc2[nH]1 (stereo unspecified) | 96.5% | 93.5% | 96.4% | 97.1% | 99% | 99.9% | 106% | 117% | 106% | 104% | 125% | 116% | 110% | 99.7% | 107% | 105% | 126% | 111% | 124% | 115% | 104% | 101% | 97.7% | 109% | 112% | 111% | 109% | 122% | 112% | 121% | 131% | 121% | 97.7%
CO[C@@H]1[C@H](N(C)C(=O)c2ccccc2)C[C@H]2O[C@]1(C)n1c3ccccc3c3c4c(c5c6ccccc6n2c5c31)C(=O)NC4 | 103% | 104% | 119% | 97% | 114% | 105% | 55.5% | 37.6% | 20.7% | 12.7% | 7% | 87% | 111% | 110% | 106% | 105% | 92.4% | 64.2% | 30.3% | 10.9% | 6.27% | 4.63% | 101% | 108% | 109% | 97% | 107% | 85.5% | 63% | 34.7% | 11.8% | 7.3% | 4.43%
CCOc1cc2c(c(F)c1OCC)C(=N)N(CC(=O)c1cc(N3CCOCC3)c(OC)c(C(C)(C)C)c1)C2 | 96.2% | 95.6% | 95.7% | 101% | 94% | 110% | 117% | 108% | 104% | 97.8% | 59.8% | 110% | 98.1% | 93.9% | 113% | 111% | 103% | 114% | 121% | 108% | 107% | 52.5% | 83.9% | 105% | 99.8% | 101% | 119% | 116% | 117% | 124% | 117% | 125% | 74.4%
CC(C)(Cc1ccc2ccccc2c1)NC[C@@H](O)COc1cccc(Cl)c1C#N | 128% | 121% | 125% | 121% | 124% | 123% | 119% | 120% | 108% | 96.7% | 65.7% | 127% | 113% | 120% | 116% | 124% | 121% | 115% | 126% | 86% | 128% | 62.8% | – | – | – | – | – | – | – | – | – | – | –
CC1=C(/C=C/C(C)=C/C=C/C(C)=C/C(=O)Nc2ccc(O)cc2)C(C)(C)CCC1 | 84.5% | 77.4% | 81.4% | 104% | 86.9% | 83.9% | 85.1% | 42.5% | 23.1% | 5.89% | 3.35% | 85% | 85.5% | 92.2% | 96.9% | 81.4% | 88.6% | 83% | 65% | 30.7% | 9.06% | 3.24% | 76.8% | 71.5% | 80.1% | 85.3% | 76.6% | 80.8% | 82.2% | 37.5% | 20% | 4.93% | 2.92%
CCCCCCCCCCCCCCCC(=O)OC[C@@H](NC(=O)C(Cl)Cl)[C@H](O)c1ccc([N+](=O)[O-])cc1 | 90.3% | 113% | 114% | 116% | 121% | 121% | 118% | 123% | 131% | 116% | 119% | 120% | 117% | 132% | 122% | 136% | 138% | 132% | 124% | 128% | 133% | 129% | – | – | – | – | – | – | – | – | – | – | –
CCOC(=O)c1ccc(C#Cc2ccc3c(c2)C(C)(C)CCS3)nc1 | 105% | 105% | 109% | 116% | 111% | 75.4% | 114% | 118% | 108% | 114% | 102% | 98% | 121% | 122% | 126% | 118% | 75.6% | 121% | 122% | 116% | 108% | 113% | 89.2% | 100% | 101% | 98.1% | 106% | 66.4% | 99.5% | 94.8% | 90% | 89.3% | 93.5%
COc1ccc(-c2c(-c3ccc(O)cc3O)n[nH]c2C)cc1 | 98.3% | 95.8% | 114% | 108% | 110% | 108% | 88.8% | 95.5% | 86% | 62.2% | 51.1% | 114% | 104% | 107% | 109% | 108% | 108% | 103% | 84.3% | 84.1% | 44% | 20.9% | 98.6% | 96.8% | 93% | 101% | 103% | 108% | 96.2% | 99.5% | 87% | 54.4% | 30.9%
CC(=O)SCC(Cc1ccccc1)C(=O)NCC(=O)OCc1ccccc1 (stereo unspecified) | 86.1% | 79.1% | 93.3% | 96.4% | 99% | 103% | 105% | 97.4% | 108% | 108% | 102% | 84.9% | 77.2% | 97.1% | 94% | 96% | 92.5% | 98.3% | 99.8% | 95.7% | 91.2% | 90.1% | 77.4% | 77.6% | 82.1% | 104% | 109% | 104% | 115% | 114% | 108% | 116% | 96.9%
CCOc1ccccc1OCCNC(C)Cc1ccc(OC)c([S+](N)(=O)[O-])c1 (stereo unspecified) | 87.1% | 82.9% | 101% | 103% | 116% | 101% | 125% | 103% | 119% | 90.9% | 85.8% | 93.4% | 85.9% | 101% | 118% | 104% | 106% | 115% | 114% | 107% | 97.6% | 105% | 112% | 88.9% | 115% | 126% | 115% | 109% | 130% | 129% | 108% | 127% | 114%
CN(C)CCC=C1C2=C(C=CC=C2)\C=C/C3=C1C=CC=C3 | 108% | 115% | 120% | 100% | 116% | 124% | 116% | 101% | 108% | 99.1% | 72.2% | 108% | 116% | 106% | 109% | 109% | 112% | 93.1% | 68.7% | 102% | 101% | 84.9% | 112% | 108% | 129% | 130% | 119% | 128% | 112% | 106% | 116% | 108% | 81.7%
CC(Oc1ccc(O)cc1)(P(=O)(O)O)P(=O)(O)O | 108% | 105% | 98.2% | 108% | 109% | 104% | 86.1% | 101% | 83.3% | 65.5% | 28.5% | 107% | 110% | 103% | 116% | 109% | 96.2% | 92.3% | 105% | 83.1% | 48.4% | 25.1% | 98.8% | 85.7% | 103% | 97.9% | 113% | 110% | 90.1% | 96.3% | 74.9% | 55.1% | 28.6%
